According to article PMC2652632 (Biochemistry, 2008):
Entries after “also recorded” stand apart in the source; their conditions may differ.

Columns and labels:
IDE [1] = assay: Degradation of insulin and short substrates by IDE; assay type: biochemical; conditions: insulin 100 nM vs kinins 4–7 mM
IDE [2] = conditions: insulin; literature value, reference not given; cited from earlier work
IDE [3] = conditions: ref 16 (b4: ref 16, 17); cited from earlier work
human IDE (IDE-CF) [4] = biological target: T1, human IDE (IDE-CF) (Homo sapiens, UniProt P14735, C110L/C171S/C178A/C257V/C414L/C573N/C590S/C789S/C812A/C819A/C904S/C966N/C974A); assay: Mass spectrometry analysis of kinins degradation by IDE-CF; assay type: biochemical; conditions: for major cleavage site: 50 mM potassium phosphate pH 7.3, MALDI-TOF and MS-MS
T1 sequence (P14735 whole entry C110L/C171S/C178A/C257V/C414L/C573N/C590S/C789S/C812A/C819A/C904S/C966N/C974A): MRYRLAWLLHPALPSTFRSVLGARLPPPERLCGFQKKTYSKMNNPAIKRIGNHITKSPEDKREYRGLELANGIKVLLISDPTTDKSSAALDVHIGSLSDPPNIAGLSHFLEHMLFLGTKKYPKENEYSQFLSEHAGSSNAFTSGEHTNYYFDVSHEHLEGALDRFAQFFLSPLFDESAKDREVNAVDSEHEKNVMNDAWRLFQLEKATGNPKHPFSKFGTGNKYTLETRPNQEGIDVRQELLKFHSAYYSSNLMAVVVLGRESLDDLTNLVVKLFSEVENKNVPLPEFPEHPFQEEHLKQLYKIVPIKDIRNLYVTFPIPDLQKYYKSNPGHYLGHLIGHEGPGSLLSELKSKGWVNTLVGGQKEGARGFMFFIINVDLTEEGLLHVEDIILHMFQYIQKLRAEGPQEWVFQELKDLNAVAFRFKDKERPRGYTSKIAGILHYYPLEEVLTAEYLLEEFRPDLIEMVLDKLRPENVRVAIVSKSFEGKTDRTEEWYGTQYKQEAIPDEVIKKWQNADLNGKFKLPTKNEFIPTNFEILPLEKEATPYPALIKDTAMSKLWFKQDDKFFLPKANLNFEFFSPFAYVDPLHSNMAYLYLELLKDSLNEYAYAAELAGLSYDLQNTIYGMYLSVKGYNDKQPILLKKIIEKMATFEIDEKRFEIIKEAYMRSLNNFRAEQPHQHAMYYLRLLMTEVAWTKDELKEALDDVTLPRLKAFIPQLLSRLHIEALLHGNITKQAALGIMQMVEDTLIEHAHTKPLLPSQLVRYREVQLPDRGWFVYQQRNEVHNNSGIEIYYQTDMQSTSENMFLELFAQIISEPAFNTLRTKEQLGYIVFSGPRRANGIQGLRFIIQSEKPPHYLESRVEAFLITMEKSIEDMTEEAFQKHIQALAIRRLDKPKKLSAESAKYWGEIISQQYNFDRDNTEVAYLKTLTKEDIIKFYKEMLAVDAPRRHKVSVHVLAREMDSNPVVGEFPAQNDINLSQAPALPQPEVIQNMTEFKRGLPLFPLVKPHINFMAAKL

human IDE (IDE-CF) [5] = biological target: T1, human IDE (IDE-CF); assay: Kinetic analysis of kinin degradation by IDE-CF; assay type: biochemical; conditions: for kcat for degradation by IDE: IDE-CF, competition with 0.5 μM substrate V, 50 mM potassium phosphate pH 7.3, 37 °C
IDE-WT [6] = biological target: T2, IDE-WT (Homo sapiens, UniProt P14735); assay: Sensitivity of IDE-WT to NEM, GSNO and H2O2; assay type: biochemical; conditions: for inactivation of IDE by NEM / H2O2 / GSNO (in words): substrates mimicking both Aβ and bradykinin
T2 sequence (P14735 whole entry): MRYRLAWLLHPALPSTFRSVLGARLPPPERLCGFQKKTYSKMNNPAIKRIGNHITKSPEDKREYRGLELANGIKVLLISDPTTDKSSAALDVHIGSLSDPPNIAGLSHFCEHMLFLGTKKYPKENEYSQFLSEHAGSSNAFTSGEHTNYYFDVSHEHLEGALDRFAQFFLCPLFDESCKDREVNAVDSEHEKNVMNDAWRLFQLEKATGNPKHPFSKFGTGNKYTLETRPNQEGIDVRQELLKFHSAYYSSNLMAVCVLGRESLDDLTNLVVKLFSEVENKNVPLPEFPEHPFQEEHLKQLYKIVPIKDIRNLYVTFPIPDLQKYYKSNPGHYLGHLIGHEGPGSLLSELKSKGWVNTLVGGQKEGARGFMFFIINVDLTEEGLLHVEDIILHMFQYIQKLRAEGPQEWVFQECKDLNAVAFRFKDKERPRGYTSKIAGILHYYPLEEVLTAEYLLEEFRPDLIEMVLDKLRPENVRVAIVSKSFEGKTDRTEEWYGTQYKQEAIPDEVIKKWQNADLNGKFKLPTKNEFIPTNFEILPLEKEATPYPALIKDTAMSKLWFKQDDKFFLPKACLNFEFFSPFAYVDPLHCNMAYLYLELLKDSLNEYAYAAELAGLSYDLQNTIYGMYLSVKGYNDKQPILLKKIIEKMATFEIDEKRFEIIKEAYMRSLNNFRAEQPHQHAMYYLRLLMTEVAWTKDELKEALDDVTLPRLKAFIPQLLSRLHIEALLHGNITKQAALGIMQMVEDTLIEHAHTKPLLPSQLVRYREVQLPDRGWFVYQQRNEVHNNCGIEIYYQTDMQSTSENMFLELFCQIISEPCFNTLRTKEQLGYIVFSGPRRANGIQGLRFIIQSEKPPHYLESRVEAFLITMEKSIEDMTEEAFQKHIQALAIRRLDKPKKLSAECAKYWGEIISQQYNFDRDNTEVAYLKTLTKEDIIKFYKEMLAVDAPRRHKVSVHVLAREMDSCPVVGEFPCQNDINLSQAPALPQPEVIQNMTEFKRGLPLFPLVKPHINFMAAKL

IDE-CF-A819C = assay: Sensitivity of IDE-CF-A819C to NEM, GSNO and H2O2; assay type: biochemical, human; conditions: for sensitivity to GSNO / H2O2 relative to IDE-WT (in words): IDE-CF-A819C compared to IDE-WT; for NEM sensitivity (in words): IDE-CF-A819C
IDE-CF-4 = assay: Sensitivity of IDE-CF-4 to NEM, GSNO and H2O2; assay type: biochemical, human; conditions: for inhibition by GSNO / H2O2 (in words): IDE-CF-4, substrate V or FAβB
IDE-CF-123 = assay: Sensitivity of IDE-CF-123 to NEM, GSNO and H2O2; assay type: biochemical, human; conditions: for inhibition by GSNO / H2O2 (in words): IDE-CF-123, substrate V or FAβB; for sensitivity to GSNO / H2O2 relative to IDE-WT (in words): IDE-CF-123 compared to IDE-WT
IDE-CF [7] = biological target: T3, IDE-CF (Homo sapiens, UniProt P14735, C110L/C171S/C178A/C257V/C414L/C573N/C590S/C789S/C812A/C819A/C904S/C966N/C974A); assay: Specific activity of IDE-CF with substrate V; assay type: biochemical; conditions: 0.5 μM fluorogenic substrate V
T3 sequence (P14735 whole entry C110L/C171S/C178A/C257V/C414L/C573N/C590S/C789S/C812A/C819A/C904S/C966N/C974A): as the sequence (P14735 whole entry C110L/C171S/C178A/C257V/C414L/C573N/C590S/C789S/C812A/C819A/C904S/C966N/C974A) above

IDE-WT [8] = biological target: T2, IDE-WT; assay: Specific activity of IDE-WT with substrate V; assay type: biochemical; conditions: 0.5 μM fluorogenic substrate V
IDE M1 = assay: NEM sensitivity of IDE mutant M1; assay type: biochemical, human; conditions: IDE M1 (C904S/C966N), 0.2 and 1 mM NEM, 1 h, substrate V
IDE M5 = assay: NEM sensitivity of IDE mutant M5; assay type: biochemical, human; conditions: IDE M5 (C789S/C819A/C904S/C966N), 0.2 and 1 mM NEM, 1 h, substrate V
812C mutant of IDE = conditions: single 812C mutant, only Ni-NTA purified; cited from earlier work
IDE-CF-A812C = assay: NEM sensitivity of IDE-CF-A812C; assay type: biochemical, human; conditions: fully purified, 0.15, 0.6 and 2.5 mM NEM, 1 h, substrate V
IDE-CF [9] = biological target: T3, IDE-CF; assay: Sensitivity of cysteine-free IDE-CF to NEM, GSNO and H2O2; assay type: biochemical
IDE M4 = assay: NEM sensitivity of IDE mutant M4; assay type: biochemical, human; conditions: IDE M4 (C789S/C904S/C966N/C974A), 0.2 and 1 mM NEM, 1 h, substrate V
IDE M3 = assay: NEM sensitivity of IDE mutant M3; assay type: biochemical, human; conditions: IDE M3 (C812A/C819A/C904S/C966N), 0.2 and 1 mM NEM, 1 h, substrate V
IDE M2 = assay: NEM sensitivity of IDE mutant M2; assay type: biochemical, human; conditions: IDE M2 (C789S/C904S/C966N), 0.2 and 1 mM NEM, 1 h, substrate V
IDE [10] = conditions: cited from earlier work
IDE-WT-C819A = assay: NEM sensitivity of IDE-WT-C819A; assay type: biochemical, human; conditions: 0–1 mM NEM, substrate V, compared to IDE-CF4 and IDE-WT
NEP = conditions: cited from earlier work
ACE = conditions: cited from earlier work
rat IDE = conditions: cited from earlier work

Q: With insulin: large peptide substrate of IDE as the compound, how does the “Km of insulin relative to kinins” value (IDE [1]) read?
A: about five orders of magnitude lower

Q: And the Km (IDE [2])?
A: 0.1 µM

Q: For `Nc1ncnc2c1ncn2[C@@H]1O[C@H](COP(=O)(O)OP(=O)(O)OP(=O)(O)O)[C@@H](O)[C@H]1O` [ATP], which “activation of IDE (in words)” value (IDE [3]) is on record?
A: can activate IDE

Q: What does the source list for kallidin?
A: major cleavage site (human IDE (IDE-CF) [4]; 30 min incubation): at the Pro/Phe site; also recorded: between Pro^8 and Phe^9; kcat for degradation by IDE (human IDE (IDE-CF) [5]): around 2,000 sec^−1

Q: Which results are given for `N[C@@H](CCC(=O)N[C@@H](CSN=O)C(=O)NCC(=O)O)C(=O)O` [GSNO, S-nitroso-glutathione]?
A: inactivation of IDE by NEM / H2O2 / GSNO (in words) (IDE-WT [6]): potently inactivate the catalytic activity of IDE; sensitivity to GSNO / H2O2 relative to IDE-WT (in words) (IDE-CF-A819C): more sensitive; inhibition by GSNO / H2O2 (in words) (IDE-CF-4): relatively resistant; inhibition by GSNO / H2O2 (in words) (IDE-CF-123): inactivated; sensitivity to GSNO / H2O2 relative to IDE-WT (in words) (IDE-CF-123): more sensitive

Q: For “7-methoxycoumarin-4-yl-acetyl-NPPGFSAFK-2,4-dinitrophenyl [substrate V]”, which specific activity (IDE-CF [7]) is on record?
A: 4.5 ± 0.1 min⁻¹

Q: And the specific activity (IDE-WT [8])?
A: 3.0 ± 0.4 min⁻¹

Q: Which results are given for `CCN1C(=O)C=CC1=O` [NEM, N-ethyl-maleimide]?
A: loss of activity (IDE-WT [6]; IDE-WT, 1 mM NEM, 1 h, 25 °C, pH 7.2, 0.5 μM substrate V, control = buffer only): greater than 95%; NEM sensitivity (in words) (IDE-WT [6]; IDE-WT, 0.2–1 mM NEM, 1 h, substrate V): highly sensitive to inhibition by NEM; inactivation of IDE by NEM / H2O2 / GSNO (in words) (IDE-WT [6]): potently inactivate the catalytic activity of IDE; NEM sensitivity (in words) (IDE M1): susceptibility to NEM; NEM sensitivity (in words) (IDE-CF-A819C; fully purified, 0.15, 0.6 and 2.5 mM NEM, 1 h, substrate V): only IDE-CF-A819C is highly sensitive to the NEM inactivation; NEM sensitivity (in words) (IDE-CF-A819C; partially purified (preliminary)): sensitivity to NEM; NEM sensitivity (in words) (IDE M5): partial resistance; NEM sensitivity (in words) (IDE-CF-4; IDE-CF-4, 0.2 and 1 mM NEM, 1 h, substrate V, partially purified): significantly reduced sensitivity; NEM sensitivity relative to IDE-WT (in words) (IDE-CF-123; IDE-CF-123, 0.2 and 1 mM NEM, 1 h, substrate V): more sensitive; NEM sensitivity (in words) (IDE-CF-123; IDE-CF-123, 0.2 and 1 mM NEM, 1 h, substrate V, partially purified): highly sensitive to NEM; susceptibility to alkylation (in words) (812C mutant of IDE): susceptible to alkylation; NEM sensitivity (in words) (IDE-CF-A812C): does not induce a similar inhibition effect as Cys 819; NEM sensitivity (in words) (IDE-CF [9]; IDE-CF, 0.2–1 mM NEM, 1 h, substrate V): relatively resistant to the inactivation by NEM; NEM sensitivity (in words) (IDE M4): susceptibility to NEM; NEM sensitivity (in words) (IDE M3): partial resistance; NEM sensitivity (in words) (IDE M2): susceptibility to NEM; mode of inhibition (IDE [10]; S-alkylation of IDE by NEM): non-competitive; inhibition by sulfhydryl-directed reactions (in words) (IDE [10]): sensitive to inhibition; NEM sensitivity (in words) (IDE-WT-C819A): less sensitive to NEM inactivation

Q: For “bradykinin: vasoactive nonapeptide hormone of the family of kinins, purchased from AnaSpec (RPPGFSPFR)”, which major cleavage site (human IDE (IDE-CF) [4]; 30 min incubation) is on record?
A: at the Pro/Phe site; also recorded: between residues Pro^7 and Phe^8

Q: And the minor cleavage site (human IDE (IDE-CF) [4]; 30 min incubation, MALDI-TOF peak m/z 653.32, not confirmed by MS-MS)?
A: between residues Gly^4 and Phe^5

Q: What about the “hydrolysis by IDE (in words)” value (human IDE (IDE-CF) [4]; purified recombinant human IDE, 30-minute incubation, MALDI-TOF) of the same compound?
A: hydrolyzed after 30-minute incubation

Q: What about the “kcat for degradation by IDE” value (human IDE (IDE-CF) [5]) of the same compound?
A: around 2,000 sec^−1

Q: What about the “affinity of IDE for kinins (in words)” value (human IDE (IDE-CF) [5]; inferred from Km) of the same compound?
A: low affinity

Q: And the “cleavage of C-terminal di-peptide” value (NEP)?
A: Same cleavage of the C-terminal di-peptide

Q: And the “cleavage of C-terminal di-peptide” value (ACE)?
A: Same cleavage of the C-terminal di-peptide

Q: What about the “activation of IDE (in words)” value (IDE [3]) of the same compound?
A: activator of IDE

Q: For `OO` [H2O2, hydrogen peroxide], which “inactivation of IDE by NEM / H2O2 / GSNO (in words)” value (IDE-WT [6]) is on record?
A: potently inactivate the catalytic activity of IDE

Q: What about the “sensitivity to GSNO / H2O2 relative to IDE-WT (in words)” value (IDE-CF-A819C) of the same compound?
A: more sensitive

Q: And the “inhibition by GSNO / H2O2 (in words)” value (IDE-CF-4)?
A: relatively resistant

Q: And the “inhibition by GSNO / H2O2 (in words)” value (IDE-CF-123)?
A: inactivated

Q: And the “sensitivity to GSNO / H2O2 relative to IDE-WT (in words)” value (IDE-CF-123)?
A: more sensitive

Q: What about the “inhibition by GSNO / H2O2 / NEM (in words)” value (IDE-CF [9]; cysteine-free IDE-CF, substrate V or FAβB, 1 mM reagent) of the same compound?
A: insensitive to the inhibition

Q: What about the “inactivation of rat IDE (in words)” value (rat IDE) of the same compound?
A: inactivate rat IDE

Q: What about the “inhibition by sulfhydryl-directed reactions (in words)” value (IDE [10]) of the same compound?
A: sensitive to inhibition
